Source: patent US8399681B2, “Substituted aminothiazolone indazoles as estrogen related receptor-alpha modulators” (Janssen Pharmaceutica NV, priority 2009, dated 2013)

Target: T1, ERR1 (also known as ERR-α or ERR-1) (Homo sapiens, UniProt P11474)
T1 sequence (P11474 193-421 limits assumed): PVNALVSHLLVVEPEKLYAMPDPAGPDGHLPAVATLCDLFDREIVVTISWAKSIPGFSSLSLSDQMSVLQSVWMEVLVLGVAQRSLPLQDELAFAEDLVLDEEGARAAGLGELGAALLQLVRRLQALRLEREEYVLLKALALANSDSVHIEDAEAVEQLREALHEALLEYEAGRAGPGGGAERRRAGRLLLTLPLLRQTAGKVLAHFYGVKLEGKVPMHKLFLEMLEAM
Experiment: TR-FRET assay (disruption of co-activator peptide binding)
Type: biochemical
Conditions: 6His-tagged ERR1 LBD, GST-hSRC2 co-activator polypeptide; average of 3 independent experiments
Outline: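 Compound-induced loss of co-activator recruitment, read by time-resolved FRET (excitation 340 nm; 615 and 665 nm emission) after 4-18 h at 25 °C. Reagents: 6 nM ERR1LBD, 6 nM GST-SRC-2, 30 nM Eu cryptate, 7.5 nM XL665, pH 8 Tris buffer. Values: hyperbolic fits averaged over 3 independent runs.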

| Structure (SMILES) | EC50 |
| --- | --- |
| Cc1nn(Cc2ccc(C(F)(F)F)cc2C(F)(F)F)c2ccc(/C=C3\SC(N4CCO[C@H](CO)C4)=NC3=O)cc12 [Example 180, 5-[1-(2,4-Bis-trifluoromethyl-benzyl)-3-methyl-1H-indazol-5-ylmethylene]-2-(2-(S)-hydroxymethyl-morpholin-4-yl)-thiazol-4-one] | 21 nM |
| Cc1nn(Cc2ccc(Cl)cc2C(F)(F)F)c2ccc(/C=C3\SC(N4CCO[C@H](CO)C4)=NC3=O)cc12 [Example 181, 5-[1-(4-Chloro-2-trifluoromethyl-benzyl)-3-methyl-1H-indazol-5-ylmethylene]-2-(2-(S)-hydroxymethyl-morpholin-4-yl)-thiazol-4-one] | 16 nM |
| Cc1nn(Cc2ccc(C(F)(F)F)cc2C(F)(F)F)c2ccc(/C=C3\SC(N4CCN[C@@H](CO)C4)=NC3=O)cc12 [Example 182, 5-[1-(2,4-Bis-trifluoromethyl-benzyl)-3-methyl-1H-indazol-5-ylmethylene]-2-(3-(R)-hydroxymethyl-piperazin-1-yl)-thiazol-4-one] | 10.8 nM |
| Cc1nn(Cc2ccc(Cl)cc2C(F)(F)F)c2ccc(/C=C3\SC(N4CCN[C@@H](CO)C4)=NC3=O)cc12 [Example 183, 5-[1-(4-Chloro-2-trifluoromethyl-benzyl)-3-methyl-1H-indazol-5-ylmethylene]-2-(3-(R)-hydroxymethyl-piperazin-1-yl)-thiazol-4-one] | 4.9 nM |
| O=C1N=C(N2CCO[C@H](CO)C2)S/C1=C\c1ccc2c(c1)c(Cl)nn2Cc1ccc(C(F)(F)F)cc1C(F)(F)F [Example 184, 5-[1-(2,4-Bis-trifluoromethyl-benzyl)-3-chloro-1H-indazol-5-ylmethylene]-2-(2-(S)-hydroxymethyl-morpholin-4-yl)-thiazol-4-one] | 3 nM |
| O=C1N=C(N2CCO[C@H](CO)C2)S/C1=C\c1ccc2c(c1)c(Cl)nn2Cc1ccc(Cl)cc1C(F)(F)F [Example 185, 5-[3-Chloro-1-(4-chloro-2-trifluoromethyl-benzyl)-1H-indazol-5-ylmethylene]-2-(2-(S)-hydroxymethyl-morpholin-4-yl)-thiazol-4-one] | 3 nM |
| O=C1N=C(N2CCN[C@@H](CO)C2)S/C1=C\c1ccc2c(c1)c(Cl)nn2Cc1ccc(Cl)cc1C(F)(F)F [Example 187, 5-[3-Chloro-1-(4-chloro-2-trifluoromethyl-benzyl)-1H-indazol-5-ylmethylene]-2-(3-(R)-hydroxymethyl-piperazin-1-yl)-thiazol-4-one] | 12.7 nM |
| O=C1N=C(N2CCC(C(=O)O)CC2)S/C1=C\c1ccc2c(c1)c(I)nn2Cc1ccc(C(F)(F)F)cc1C(F)(F)F [Example 191, 1-[5-({1-[2,4-Bis(trifluoromethyl)benzyl]-3-iodo-1H-indazol-5-yl}methylidene)-4-oxo-4,5-dihydro-1,3-thiazol-2-yl]piperidine-4-carboxylic acid] | 3.6 nM |
| O=C1N=C(N2CCOC[C@@H]2C(=O)O)S/C1=C\c1ccc2c(cnn2Cc2ccc(Cl)cc2C(F)(F)F)c1 [Example 194, 4-[5-({1-[4-Chloro-2-(trifluoromethyl)benzyl]-1H-indazol-5-yl}methylidene)-4-oxo-4,5-dihydro-1,3-thiazol-2-yl]morpholine-3-(R)-carboxylic acid] | 23.5 nM |
| C[C@@H]1CN(C2CN(C3=NC(=O)/C(=C/c4ccc5c(cnn5Cc5ccc(Cl)cc5C(F)(F)F)c4)S3)C2)C[C@H](C)O1 [Example 203, 5-({1-[4-Chloro-2-(trifluoromethyl)benzyl]-1H-indazol-5-yl}methylidene)-2-[3-(2,6-cis-dimethylmorpholin-4-yl)azetidin-1-yl]-1,3-thiazol-4(5H)-one] | 38.8 nM |
| O=C1N=C(N2CC(N3CCOCC3)C2)S/C1=C\c1ccc2c(cnn2Cc2ccc(Cl)cc2C(F)(F)F)c1 [Example 205, 5-({1-[4-Chloro-2-(trifluoromethyl)benzyl]-1H-indazol-5-yl}methylidene)-2-(3-morpholin-4-ylazetidin-1-yl)-1,3-thiazol-4(5H)-one] | 30 nM |
| O=C1N=C(N2CCN[C@H](CO)C2)S/C1=C\c1ccc2c(cnn2Cc2ccc(Cl)cc2C(F)(F)F)c1 [Example 206, 5-({1-[4-Chloro-2-(trifluoromethyl)benzyl]-1H-indazol-5-yl}methylidene)-2-[3-(S)-(hydroxymethyl)piperazin-1-yl]-1,3-thiazol-4(5H)-one] | 28 nM |
| COC[C@H]1CN(C2=NC(=O)/C(=C/c3ccc4c(cnn4Cc4ccc(Cl)cc4C(F)(F)F)c3)S2)CCN1 [Example 208, 5-({1-[4-Chloro-2-(trifluoromethyl)benzyl]-1H-indazol-5-yl}methylidene)-2-[3-(R)-(methoxymethyl)piperazin-1-yl]-1,3-thiazol-4(5H)-one] | 6 nM |

Continued, values first:

| EC50 | Structure (SMILES) |
| --- | --- |
| 17 nM | O=C1N=C(N2CCNC3(CC3)C2)S/C1=C\c1ccc2c(cnn2Cc2ccc(C(F)(F)F)cc2C(F)(F)F)c1 [Example 179, 5-[1-(2,4-Bis-trifluoromethyl-benzyl)-1H-indazol-5-ylmethylene]-2-(4,7-diaza-spiro[2.5]oct-7-yl)-thiazol-4-one] |
| 24 nM | O=C1N=C(N2C[C@@H](F)C[C@H]2C(=O)O)S/C1=C\c1ccc2c(cnn2Cc2ccc(Cl)cc2C(F)(F)F)c1 [Example 189, 1-[5-({1-[4-Chloro-2-(trifluoromethyl)benzyl]-1H-indazol-5-yl}methylidene)-4-oxo-4,5-dihydro-1,3-thiazol-2-yl]-4-(S)-fluoro-L-proline] |
| 53 nM | COC(=O)C1CCN(C2=NC(=O)/C(=C/c3ccc4c(cnn4Cc4ccc(C(F)(F)F)cc4C(F)(F)F)c3)S2)CC1 [Example 190, Methyl 1-[5-({1-[2,4-bis(trifluoromethyl)benzyl]-1H-indazol-5-yl}methylidene)-4-oxo-4,5-dihydro-1,3-thiazol-2-yl]piperidine-4-carboxylate] |
| 16 nM | C[C@@H]1CN(C)CCN1C1=NC(=O)/C(=C/c2ccc3c(cnn3Cc3ccc(C(F)(F)F)cc3C(F)(F)F)c2)S1 [Example 192, 5-({1-[2,4-Bis(trifluoromethyl)benzyl]-1H-indazol-5-yl}methylidene)-2-(2-(R),4-dimethylpiperazin-1-yl)-1,3-thiazol-4(5H)-one] |
| 11 nM | C[C@@H]1CN(C)CCN1C1=NC(=O)/C(=C/c2ccc3c(cnn3Cc3ccc(Cl)cc3C(F)(F)F)c2)S1 [Example 193, 5-({1-[4-Chloro-2-(trifluoromethyl)benzyl]-1H-indazol-5-yl}methylidene)-2-(2-(R),4-dimethylpiperazin-1-yl)-1,3-thiazol-4(5H)-one] |
| 20 nM | CN1CCN(C2=NC(=O)/C(=C/c3ccc4c(cnn4Cc4ccc(C(F)(F)F)cc4C(F)(F)F)c3)S2)C[C@@H]1CO [Example 195, 5-({1-[2,4-Bis(trifluoromethyl)benzyl]-1H-indazol-5-yl}methylidene)-2-[3-(R)-(hydroxymethyl)-4-methylpiperazin-1-yl]-1,3-thiazol-4(5H)-one] |
| 16 nM | CN1CCN(C2=NC(=O)/C(=C/c3ccc4c(cnn4Cc4ccc(Cl)cc4C(F)(F)F)c3)S2)C[C@@H]1CO [Example 196, 5-({1-[4-Chloro-2-(trifluoromethyl)benzyl]-1H-indazol-5-yl}methylidene)-2-[3-(R)-(hydroxymethyl)-4-methylpiperazin-1-yl]-1,3-thiazol-4(5H)-one] |
| 11 nM | COCCN1CCN(C2=NC(=O)/C(=C/c3ccc4c(cnn4Cc4ccc(Cl)cc4C(F)(F)F)c3)S2)[C@H](C)C1 [Example 199, 5-({1-[4-Chloro-2-(trifluoromethyl)benzyl]-1H-indazol-5-yl}methylidene)-2-[4-(2-methoxyethyl)-2-(R)-methylpiperazin-1-yl]-1,3-thiazol-4(5H)-one] |
| 13 nM | O=C1N=C(N2CCN[C@H](CO)C2)S/C1=C\c1ccc2c(cnn2Cc2ccc(C(F)(F)F)cc2C(F)(F)F)c1 [Example 200, 5-({1-[2,4-Bis(trifluoromethyl)benzyl]-1H-indazol-5-yl}methylidene)-2-[3-(S)-(hydroxymethyl)piperazin-1-yl]-1,3-thiazol-4(5H)-one] |
| 47 nM | NCC1CN(C2=NC(=O)/C(=C/c3ccc4c(cnn4Cc4ccc(C(F)(F)F)cc4C(F)(F)F)c3)S2)CCO1 (centres unmarked) [Example 201, 2-[2-(Aminomethyl)morpholin-4-yl]-5-({1-[2,4-bis(trifluoromethyl)benzyl]-1H-indazol-5-yl}methylidene)-1,3-thiazol-4(5H)-one] |
| 59.7 nM | C[C@@H]1CN(C2CN(C3=NC(=O)/C(=C/c4ccc5c(cnn5Cc5ccc(C(F)(F)F)cc5C(F)(F)F)c4)S3)C2)C[C@H](C)O1 [Example 202, 5-({1-[2,4-Bis(trifluoromethyl)benzyl]-1H-indazol-5-yl}methylidene)-2-[3-(2,6-cis-dimethylmorpholin-4-yl)azetidin-1-yl]-1,3-thiazol-4(5H)-one] |
| 42 nM | O=C1N=C(N2CC(N3CCOCC3)C2)S/C1=C\c1ccc2c(cnn2Cc2ccc(C(F)(F)F)cc2C(F)(F)F)c1 [Example 204, 5-({1-[2,4-Bis(trifluoromethyl)benzyl]-1H-indazol-5-yl}methylidene)-2-(3-morpholin-4-ylazetidin-1-yl)-1,3-thiazol-4(5H)-one] |
| 38 nM | CC(C)(C)N1CCN(C2=NC(=O)/C(=C/c3ccc4c(cnn4Cc4ccc(C(F)(F)F)cc4C(F)(F)F)c3)S2)C[C@@H]1CO [Example 207, 5-({1-[2,4-Bis(trifluoromethyl)benzyl]-1H-indazol-5-yl}methylidene)-2-[4-tert-butyl-3-(R)-(hydroxymethyl)piperazin-1-yl]-1,3-thiazol-4(5H)-one] |
